SMILES strings stand for the structures.

Data on two molecules can be found in patent US9475819B2, “Substituted 7-azabicycles and their use as orexin receptor modulators” (Janssen Pharmaceutica NV, priority 2013, dated 2016).

The target of one assay is human orexin 1 receptor (Homo sapiens (Human), UniProt O43613). As to the kind of experiment: Human orexin 1 receptor radioligand binding ([3H]-SB674042 competition, CHO cells). As to conditions: [3H]-SB674042 competition binding, read-out: hOX1 Ki.
A further assay deals with human orexin 2 receptor (Homo sapiens (Human), UniProt O43614). Briefly: Human orexin 2 receptor radioligand binding ([3H]-EMPA competition, HEK293 cells). As to conditions: [3H]-EMPA competition binding, read-out: hOX2 Ki.
Sequence of human orexin 2 receptor (O43614 whole entry): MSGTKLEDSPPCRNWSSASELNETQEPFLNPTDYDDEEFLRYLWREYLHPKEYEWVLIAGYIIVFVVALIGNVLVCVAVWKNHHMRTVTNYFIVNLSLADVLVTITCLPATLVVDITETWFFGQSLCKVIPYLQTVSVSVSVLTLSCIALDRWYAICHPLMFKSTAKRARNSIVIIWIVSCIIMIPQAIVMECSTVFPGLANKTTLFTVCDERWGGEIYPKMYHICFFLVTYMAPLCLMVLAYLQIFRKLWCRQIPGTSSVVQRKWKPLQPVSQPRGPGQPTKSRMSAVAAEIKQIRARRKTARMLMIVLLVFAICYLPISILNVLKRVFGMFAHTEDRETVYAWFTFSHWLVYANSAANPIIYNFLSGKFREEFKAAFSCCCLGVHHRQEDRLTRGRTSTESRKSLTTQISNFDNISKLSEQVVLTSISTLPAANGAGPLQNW

Sequence of human orexin 1 receptor (O43613 whole entry): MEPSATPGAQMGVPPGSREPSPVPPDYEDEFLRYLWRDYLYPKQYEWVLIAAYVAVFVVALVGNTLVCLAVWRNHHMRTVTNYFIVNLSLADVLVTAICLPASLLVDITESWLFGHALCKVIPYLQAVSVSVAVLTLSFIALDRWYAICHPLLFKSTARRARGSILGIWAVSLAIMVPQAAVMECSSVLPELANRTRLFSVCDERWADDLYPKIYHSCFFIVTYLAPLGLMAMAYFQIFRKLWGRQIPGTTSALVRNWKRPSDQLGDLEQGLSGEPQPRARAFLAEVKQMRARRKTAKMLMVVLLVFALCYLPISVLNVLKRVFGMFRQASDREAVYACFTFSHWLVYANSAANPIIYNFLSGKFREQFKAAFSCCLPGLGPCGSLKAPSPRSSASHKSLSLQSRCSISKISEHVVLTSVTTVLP

A word on the Ki: it is the dissociation constant of the complex between target and ligand, obtained from inhibition or displacement. For the molecule `Cc1ccc(-n2nccn2)c(C(=O)N2C3CCC2C(Nc2ccc(C(F)(F)F)cn2)C3)n1` (racemic) [Example 187, (±)-(6-methyl-3-(2H-1,2,3-triazol-2-yl)pyridin-2-yl)(2-((5-(trifluoromethyl)pyridin-2-yl)amino)-7-azabicyclo[2.2.1]heptan-7-yl)methanone], the Ki at human orexin 1 receptor came out at 48 nM; at human orexin 2 receptor, 620 nM.

Turning to `Cc1ccc(-n2nccn2)c(C(=O)N2[C@H]3CC[C@@H]2[C@@H](COc2ccc(F)cn2)C3)c1` (single isomer, unassigned) [Example 10B], at human orexin 2 receptor, the inhibition constant (Ki) was determined as 5150 nM.
